# Source: patent US20260263485A1, “AMINOSTEROL COMPOUNDS, AMINOSTEROL-CYCLODEXTRIN FORMULATIONS, AND METHODS OF USING THE SAME” (Enterin, Inc., priority 2022, published 2026)
# Assays:
# [1] = Identification of metabolites of ENT-03S in rat bile samples (UPLC-MS/MS); settings: bile duct cannulated male SD rats, 10 mg/kg ENT-03S SC; for Metabolite peak area percentages Rat Bile: pooled bile 0-24 h, relative XIC peak area; for Metabolite peak area Rat Bile: pooled bile, XIC peak area
# Method: An equal volume of rat bile samples (50 μL) were taken from different animals at different time points following administration of ENT-03S. 50 μL of matrix was mixed with 200 μL of methanol (containing 0.1% formic acid), vortexed for 100 seconds and then centrifuged at 16,000 g for 10 minutes at 4° C. to precipitate proteins. 100 μL of the supernatant was transferred to a new tube and the supernatant diluted with 100 μt, pure water, mixed well and analyzed using UPLC-MS/MS.
# The peak area percentages of parent drug and each metabolite were determined by semi-quantitative estimation using the extracted ion chromatogram peak areas of all detected drug-related material in the sample. Metabolites with percentage of peak area>10% are proposed as major metabolites of ENT-03S.
# Bile samples were obtained from male rats at various time points following a 10 mg/kg dose of ENT-03S via subcutaneous administration in bile dicut cannulated male SD rats as detailed in Table 10. The samples were transferred on dry ice and stored at −80° C. prior to use
# Study design: An equal volume of rat bile samples (50 μL) were taken from different animals at different time points following administration of ENT-03S in study No.: PII-DMPK-ETR-21-001. 50 μL of matrix was mixed with 200 μL of methanol (containing 0.1% formic acid), vortexed for 100 seconds and then centrifuged at 16,000 g for 10 minutes at 4° C. to precipitate proteins. 100 μL of the supernatant was transferred to a new tube and the supernatant diluted with 100 μL pure water, mixed well and analyzed using UPLC-MS/MS.
# Sample preparation: For bile samples, an equal volume of samples (50 μL) are taken from different animals at various time points after the administration of each group of samples, and the same group of samples are mixed thoroughly.
# Data Analysis: UPLC-MS/MS was used for sample analysis, and was conducted using a DionexUltiMate 3000/Vanquish UHPLC system. For mass spectrometry (MS), all analysis was carried out with a Q-Exactive instrument (Thermo Fisher). A full MS scan was used to trigger the data dependent acquisition (DDA) of MS/MS scan spectra. Compound dependent parameters were optimized by ENT-03S. DDA settings were used to trigger acquisition of MS^2 spectra for ions whose intensity is in top 5 of all, with exclusion of impurity ions (m/z 149.02332, m/z 279.15909, m/z 391.28429 and m/z 445.12003), after 3 occurrences for 10 s. Dynamic exclusion settings: automatic exclusion of the ions which have been taken.
# Data Analysis: The analysis was carried out using a thermo Fisher Scientific Q Exactive instrument. Full MS scan was used to trigger the data dependent acquisition (DDA) of MS/MS scan spectra. Compound dependent parameters were optimized by ENT-03S. DDA settings were used to trigger acquisition of MS^2 spectra for ions whose intensity was in the top 5 of all, with exclusion of ions (m/z 149.02332, m/z 279 1 5909, m/z 391.28429 and m/z 445 12003), after 3 occurrences for 10 s. Data was acquired and processed using Xcalibur v4.1 software (Thermo Fisher Scientific) and Compound Discoverer 3.1 (Thermo Fisher Scientific) and Excel (Microsoft 2016).
# [2] = Plasma pharmacokinetics of ENT-03S cyclodextrin formulation after subcutaneous injection; format: in vivo, rat; settings: Sprague-Dawley, rat; 20% beta-cyclodextrin formulation; SC Dose 10 mg/kg; male SD rats; plasma; mean; read-out: Tmax Mean
# Method: In this example, ENT-03S was formulated with unmodified beta-cyclodextrin at a concentration of 25 mg/ml ENT-03, and 20% beta-cyclodextrin, pH 7.5, buffered with phosphate.
# Male Sprague-Dawley rats were administered the ENT-03-cyclodextrin formulation subcutaneous at a dose of 10 mg/kg. Blood samples were drawn from the tail vein at various times, the concentrations of ENT-03 determined, and PK parameters determined.
# [3] = tested on: PTP1B; settings: in vitro, bank of commercially available phosphatases; cited from earlier work
# [4] = cited from earlier work
# [5] = Identification of metabolites of ENT-03S in rat plasma and urine samples (UPLC-MS/MS); format: in vivo
# Method: An equal number of rat urine (50 μL) were taken from different animals at various time points following administration of ENT-03S. For plasma samples, the Hamilton pooling method was used.
# Study design: An equal number of rat urine (50 μL) samples were taken from different animals at various time points from study No.: PH-DMPK-ETR-21-001 following administration of ENT-03S. For plasma samples, the Hamilton pooling method was used.
# The samples were then analysed using UPLC-MS/MS.
# Compound dependent parameters were optimized by ENT-03S.
structure (smiles),measurement,setting,value
C[C@H](C[C@H](C)C(=O)O)[C@H]1CCC2C3C(CC[C@@]21C)[C@@]1(C)CC[C@H](NCCC(=O)O)C[C@@H]1C[C@H]3O (some centres unmarked) [M16-RB],Metabolite peak area percentages Rat Bile,[1],0.69%
same,Metabolite peak area Rat Bile,[1],8.45E+05
"CC(CCC[C@@H](C)[C@H]1CCC2C3C(CC[C@@]21C)[C@@]1(C)CC[C@H](NCCCNCCCCNCCCN)C[C@@H]1C[C@H]3O)C(=O)O (single isomer, unassigned) [ENT-03]",Tmax,[2],2 h
same,inhibition of PTP1B relative to the other phosphatases assayed,[3],most potently inhibited
same,hepatic steatosis,[4]; in vivo,reduces hepatic steatosis
same,insulin sensitivity,[4]; in vivo,acutely increases insulin sensitivity
same,food intake and body weight,[4]; peripheral and central administration to lean rodents,prolonged reduction in food intake and body weight
C[C@H](CCC[C@H](C)C(=O)O)[C@H]1CCC2C3C(CC[C@@]21C)[C@@]1(C)CC[C@H](NCCCNCCCCNCCC(=O)O)C[C@@H]1C[C@H]3O (stereo partly drawn) [ENT-25S],Metabolite peak area percentages Rat Bile,[1],9.52%
same,Metabolite peak area Rat Bile,[1],1.17E+07
"C[C@H](CCC(=O)O)[C@H]1CCC2C3C(CC[C@@]21C)[C@@]1(C)CC[C@H](NCCCNCCCCNCCCN)C[C@@H]1C[C@H]3O (single isomer, unassigned) [ENT-17]",Metabolite peak area percentages Rat Plasma Male,"[5]; pooled male SD rat plasma 0.25-24 h after 10 mg/kg ENT-03S SC, relative XIC peak area",0.55%
same,Metabolite peak area Rat Plasma Male,"[5]; pooled male SD rat plasma after 10 mg/kg ENT-03S SC, XIC peak area",3.62E+06
same,Metabolite peak area percentages Rat Urine Male,"[5]; pooled male SD rat urine 0-24 h after 10 mg/kg ENT-03S SC, relative XIC peak area, “—”: not observed",7.56%
same,Metabolite peak area Rat Urine Male,"[5]; pooled male SD rat urine after 10 mg/kg ENT-03S SC, XIC peak area, “—”: not observed",1.70E+05
C[C@H](CCC[C@H](C)C(=O)O)[C@H]1CCC2C3C(CC[C@@]21C)[C@@]1(C)CC[C@H](NCCCNCCCC(=O)O)C[C@@H]1C[C@H]3O (some centres unmarked) [M10-PU/M14-RB],Metabolite peak area percentages Rat Bile,[1],3.23%
same,Metabolite peak area Rat Bile,[1],3.98E+06
C[C@H](CCC(=O)NCCS(=O)(=O)O)[C@H]1CCC2C3C(CC[C@@]21C)[C@@]1(C)CC[C@H](NCCC(=O)O)C[C@@H]1C[C@H]3O (some centres unmarked) [M3-RB],Metabolite peak area percentages Rat Bile,[1],2.27%
same,Metabolite peak area Rat Bile,[1],2.80E+06
